Assay results taken from US7842823B2, “Fluorogenic probes for reactive oxygen species” (The Regents of the University of California, priority 2005, dated 2010).

Key:
[1] = comparison probe; cited from earlier work
[2] = Spectroscopic properties under simulated physiological conditions; type: physicochemical; conditions: 20 mM HEPES buffer; for fluorescence of unreacted probe: pH 7, before H2O2
Protocol: (§1) Millipore water was used to prepare all aqueous solutions. All spectroscopic measurements were performed in 20 mM HEPES buffer, pH 7. Absorption spectra were recorded using a Varian Cary 50 spectrophotometer (Walnut Creek, Calif.). Fluorescence spectra were recorded using a Photon Technology International Quanta Master 4 L-format scanning spectrofluorometer (Lawrenceville, N.J.) equipped with an LPS-220B 75-W xenon lamp and power supply, A-1010B lamp housing with integrated igniter, switchable 814 photon-counting/analog photomultiplier detection unit, and MD5020 motor driver. Samples for absorption and fluorescence measurements were contained in 1-cm×1-cm quartz cuvettes (1.4- or 3.5-mL volume, Starna, Atascadero, Calif.).
(§2) The Peroxysensor reagents were evaluated under simulated physiological conditions (20 mM HEPES buffer, pH 7). […] FIG. 4, FIG. 5 and FIG. 6 show the fluorescence responses of PF1, PR1, and PX1, respectively, to H2O2.

[3] = test system: embryonic rat hippocampal neurons (E18); test: Fluorescence imaging of H2O2 in primary hippocampal neurons; type: cell-based
Protocol: Hippocampal primary cultures were prepared from embryonic day 18 (E18) rat embryos according to a previously reported protocol. Briefly, hippocampi were dissociated by treatment with trypsin for 20 min at 37° C. followed by washing. The neuronal cells were plated on glass coverslips (Carolina Biological, Burlington, N.C.) coated with poly-L-lysine (50 μg/ml, Sigma) and cultured in neurobasal medium supplemented with 2 mM Glutamax and 2% B-27 (Invitrogen). After 10 days in vitro, the cultures were washed with PBS, incubated with the probe in PBS, and imaged.
Finally, the successful use of the Peroxysensor probes for monitoring changes in intracellular H2O2 concentrations in mammalian cell lines using either confocal or two-photon microscopy led us to evaluate their utility in primary culture systems. […] Control neurons without PF1 and/or H2O2 treatment show no detectable fluorescence enhancements. These experiments confirm that PF1 can be used in living neurons to detect oxidative stress events.

[4] = Fluorescence response to various ROS (H2O2 selectivity); conditions: 20 mM HEPES, pH 7, 25° C.; for higher response for H2O2 over .OH: .OH from Fe2+ with H2O2; for higher response for H2O2 over .OtBu: .OtBu from Fe2+ with TBHP; for higher response for H2O2 over NO: NO delivered using SNOC
Protocol: (§3) FIG. 7 is the fluorescence response of 5 μM PF1 to various ROS (10 mM O2^−, 100 μM for all other ROS). .OH and .Ot-Bu were generated by reaction of Fe^2+ with H2O2 or tert-butyl hydroperoxide (TBHP), respectively. NO was delivered using S-nitrosocysteine (SNOC). Spectra were acquired in 20 mM HEPES, pH 7, and all data were obtained after incubation with the appropriate ROS at 25° C. for 1 h. Collected emission was integrated between 460 and 700 nm (λexc=450 nm).
FIG. 8 is the fluorescence response of 5 μM PR1 to various ROS (10 mM O2^−, 100 μM for all other ROS). .OH and .O^tBu were generated by reaction of Fe^2+ with H2O2 or tert-butyl hydroperoxide (TBHP), respectively. NO was delivered using S-nitrosocysteine (SNOC). Spectra were acquired in 20 mM HEPES, pH 7, and all data were obtained after incubation with the appropriate ROS at 25° C. for 30 min. Collected emission was integrated between 570 and 800 nm (λexc=560 nm).
as §3, with “FIG. 9” for “FIG. 7”, “of 10” for “of 5”, “μM PX1” for “μM PF1”, “between 370” for “between 460”, “and 600” for “and 700”, “nm (λexc=350” for “nm (λexc=450”
as §1
FIG. 7, FIG. 8 and FIG. 9 compare the relative reactivities of boronate-based PF1, PR1, and PX1, respectively, toward various ROS.

[5] = test system: HEK cells; test: Confocal fluorescence imaging of H2O2 in live HEK cells; conditions: for cell viability during imaging: HEK cells after probe incubation and H2O2 treatment; for intracellular background fluorescence of the unreacted probe: live HEK cells, 5-10 μM probe, 5-10 min at 25° C., before H2O2; for intracellular fluorescence change upon addition of H2O2: probe-loaded live HEK cells, 10-100 μM H2O2
Protocol: (a) Fluorescence image of HEK cells incubated with 5 μM PF1 for 5 min at 25° C. (b) Fluorescence image of PF1-stained HEK cells treated with 100 μM H2O2 for 11 min at 25° C. Excitation was provided at 488 nm, and emission was collected in a window from 505 to 580 nm. Scale bar=27 μm.
(a) Fluorescence image of HEK cells incubated with 10 μM PR1 for 10 min at 25° C. (b) Fluorescence image of PR1-stained HEK cells treated with 100 μM H2O2 for 30 min at 25° C. Excitation was provided at 543 nm, and emission was collected in a window from 548 to 644 nm. Scale bar=18 μm.
HEK 293T cells were cultured in Dulbecco's Modified Eagle Medium (DMEM, Invitrogen, Carlsbad, Calif.) supplemented with 10% Fetal Bovine Serum (FBS, Invitrogen), glutamine (2 mM), and penicillin/streptomycin (50 μg/ml, Invitrogen). One day before imaging, cells were passed and plated on 18-mm glass coverslips coated with poly-L-lysine (50 μg/ml, Sigma, St. Louis, Mo.). Immediately before the experiments, cells were washed with PBS buffer, incubated with the probe in PBS, and imaged.
Confocal fluorescence imaging was performed with a Zeiss LSM510 META laser scanning microscope containing an Axioplan 2 MOT upright microscope and a 40× water-immersion objective lens. Excitation of PF1-loaded cells at 488 nm was carried out with an argon ion laser, and emission was collected in a window from 505 nm to 580 nm using a META detection system. Excitation of PR1-loaded cells at 543 nm was carried out with a HeNe laser, and emission was collected in a window from 548 nm to 644 nm using a META detector. PF1 or PR1 were incubated with live cell samples for 5 to 10 min. Addition of H2O2 (10 to 100 μM) to cell samples was performed directly on the microscope stage by bath application to the media.
The family of red-, green-, and blue-fluorescent reagents for the optical detection of H2O2 in living biological samples.

[6] = Fluorescence response of the Peroxysensor probes to H2O2 in buffer; conditions: 20 mM HEPES buffer, pH 7; H2O2 addition
Protocol: as §1, §2

[7] = test system: HEK cells; test: Two-photon fluorescence imaging of H2O2 in live HEK cells; type: cell-based
Protocol: Two-photon excitation was provided at 704 nm, and emission was collected in a window from 420 to 500 nm. Scale bar=18 μm
Two-photon fluorescence imaging of PX1 was carried out using an inverted Zeiss LSM510 Axiovert 200M microscope with a NeoFLUAR 40x/1.3 NA oil-immersion objective lens. Samples were excited by 704-nm pulses from a mode-locked Ti:Sapphire laser (Tsunami, SpectraPhysics, 120-150 fs pulse width, 80 MHz repetition rate). The emission light was filtered with a 80-nm wide bandpass filter centered at 460 nm (460BP40, Chroma) and detected with the non-descanned detector (NDD) of the LSM510.
Alternative methods were explored for applying the blue-fluorescent PX1 reporter toward intracellular H2O2 detection, reasoning that its short ultraviolet excitation maximum (˜350 nm) would promote interfering absorbance, scattering, and background autofluorescence from native cellular species. […] Whereas one-photon fluorescence microscopy uses a single photon to excite a fluorophore into its excited state, two-photon fluorescence microscopy uses two photons of lower energy light to generate a fluorophore excited state. […] Control cells without probe give the same fluorescence response, establishing that the observed background signal is from endogenous cellular species.

| Structure (SMILES) | fluorescence of unreacted probe [2] | higher response for H2O2 over .OH ([4]; 100 μM ROS) [fold] | higher response for H2O2 over .OtBu ([4]; 100 μM ROS) [fold] | cell viability during imaging [5] | intracellular background fluorescence of the unreacted probe [5] | intracellular fluorescence change upon addition of H2O2 [5] | higher response for H2O2 over NO ([4]; 100 μM ROS) | also measured |
| --- | --- | --- | --- | --- | --- | --- | --- | --- |
| O=C(O)c1ccccc1C1c2cc(Cl)c(O)cc2Oc2cc(O)c(Cl)cc21 [DCFH, 2′,7′-dichlorodihydrofluorescein] | – | – | – | – | – | – | – | fluorescence increase by reaction with .OH or peroxynitrite (ONOO−) [1]: ca. 7000 fold; fluorescence increase upon addition of H2O2 [1]: 190 fold; fluorescence increase upon light-induced autoxidation [1]: 2000 fold; fluorescence increase with NO [1]: 150 fold; fluorescence increase with O2− [1]: 67 fold |
| CC1(C)OB(c2ccc3c(c2)Oc2cc(B4OC(C)(C)C(C)(C)O4)ccc2C32OC(=O)c3ccccc32)OC1(C)C [PF1, 3′,6′-Bis(pinacolatoboron)fluoran] | non-fluorescent | > 3 | > 15 | cells are viable throughout the imaging experiments | negligible intracellular background fluorescence | prompt increases in intracellular green fluorescence | – | background fluorescence of the unreacted probe ([3]; 10 μM probe, 5 min at 25° C.): negligible background fluorescence; intracellular fluorescence change under simulated oxidative stress ([3]; 300 μM H2O2 for 30 min at 25° C.): notable increases in intracellular fluorescence |
| CC1(C)OB(c2ccc3c(c2)Oc2cc(B4OC(C)(C)C(C)(C)O4)ccc2N3)OC1(C)C [PR1, 3,7-Bis(pinacolatoboron)phenoxazine] | non-fluorescent | > 200 | > 200 | cells are viable throughout the experiments | virtually no background fluorescence | Striking increases in intracellular red fluorescence | > 200 fold | higher response for H2O2 over O2− ([4]; 10 mM O2−, 100 μM H2O2): > 1000 fold |
| CC1(C)OB(c2ccc3c(=O)c4ccc(B5OC(C)(C)C(C)(C)O5)cc4oc3c2)OC1(C)C [PX1, 3,6-Bis(pinacolatoboron)xanthone] | weak fluorescence | – | – | – | – | – | ca. 6 fold | increase in integrated fluorescence intensity (dynamic range) upon reaction with H2O2 [6]: 52 fold; emission maximum of unreacted probe ([2]; pH 7): 400 nm; ultraviolet absorption maximum ([2]; pH 7): 350 nm; extinction coefficient ε at absorption maximum ([2]; pH 7, 350 nm): 4700 M⁻¹ cm⁻¹; higher response for H2O2 over tert-butyl hydroperoxide (TBHP) ([4]; 100 μM ROS): > 100 fold; intracellular background fluorescence of the unreacted probe ([7]; live HEK cells, 10 μM probe, 2-3 min at 25° C., two-photon excitation 704 nm): minimal intracellular background fluorescence; intracellular fluorescence change upon addition of H2O2 ([7]; probe-stained HEK cells, 100 μM H2O2, two-photon excitation 704 nm): Prompt increases in intracellular blue fluorescence |
